Assay results: PMC7083880 (Nature Communications, 2020)

Legend:
FTSJ1 = molecular target: T1, FTSJ1 (Homo sapiens, UniProt Q9UET6); assay: DAP affinity column chromatography; type: binding; details: HeLa cell extract
T1 construct: host or cells: HeLa
T1 sequence (Q9UET6 1-329): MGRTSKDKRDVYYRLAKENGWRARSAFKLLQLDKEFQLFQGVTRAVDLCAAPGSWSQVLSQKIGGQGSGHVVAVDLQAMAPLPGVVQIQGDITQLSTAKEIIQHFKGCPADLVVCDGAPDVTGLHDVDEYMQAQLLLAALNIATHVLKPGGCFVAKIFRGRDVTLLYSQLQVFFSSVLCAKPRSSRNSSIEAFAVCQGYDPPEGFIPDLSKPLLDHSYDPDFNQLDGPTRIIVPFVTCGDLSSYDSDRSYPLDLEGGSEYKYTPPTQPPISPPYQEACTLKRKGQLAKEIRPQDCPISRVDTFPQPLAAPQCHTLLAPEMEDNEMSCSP
Description: Firefly luciferase from HEK293FT cells transfected with the Fluc-int-UGA construct was immunoprecipitated and digested with trypsin. The MS/MS spectrum of the peptide containing the PTC position and the sequence determination are shown. The upper red and blue sequences indicate the amino acids validated, respectively, by detection of Nter and Cter peptide fragments (b and y ion series). Peptide fragments y6 and y7 clearly identify tryptophan (W) at the PTC position. The black peaks correspond to non-attributed mass-to-charge ratio (m/z) values. […] Readthrough efficiency was determined by measuring luciferase activity in HeLa cells co-transfected with the firefly luciferase construct described in Fig. 1b and with increasing amounts of an expression vector for either FTSJ1 or CTU1 (0.5, 1, or 2 µg). The empty expression vector (E.v.) was used as control. […] The experiment was performed twice and the results of both experiments (Exp1 and Exp2) are shown. c Western blot analysis of FTSJ1 and CTU1. d 2′-O-methylation analysis of tRNA^Trp, tRNA^SER, and tRNA^GLN by RiboMethSeq. […] A molecular weight marker is indicated to the left of each gel. p-values (p) were calculated using Student’s t-test. Source data are provided as a Source Data file.
The eluate was analyzed by western blotting for the presence of various proteins, including FTSJ1. […]

HeLa cells = assay: Toxicity assay: adenylate kinase activity in culture medium; type: cell-based, human
Procedure: The toxicity assay was performed 24 h after starting cell treatment. The cell culture supernatant was centrifuged at 6000×g for 10 min to pellet cells and cell debris. One-twentieth of the supernatant was then used to measure adenylate kinase activity according to the supplier’s protocol (Lonza Biosciences, Basel, Switzerland).

[1] = system: HCC-GR6 cell tumors (wild-type TP53) in nude mice; assay: In vivo tumor growth, HCC-GR6 cells in nude mice; parameters: species or system mouse; details: force-fed daily, 5 weeks
Procedure: Next, the capacity of DAP to correct UGA nonsense mutations in vivo was assessed in a mouse model. Four-week-old immunodeficient nude mice were injected with an identical number of Calu-6 cells carrying a UGA nonsense mutation in the TP53 gene, of HCC-GR6 cells having a wild-type TP53 gene or of p53-null 4T1 cells. […] The slower growth of Calu-6-cell-derived tumors in DAP-treated mice is thus likely due to rescue of p53 protein synthesis in these tumors, as expected on the basis of our cell culture experiments and as observed after western-blotting applied to protein extracts of tumors from DAP-treated mice (Supplementary Fig. 8B). Because of the small size of the Calu-6 tumors in DAP-treated mice and thus the high probability of collecting mouse cells upon tumor excision, quantitation of p53 was done in another experiment.
To initiate tumor growth, 6-week-old nude mice received subcutaneously 10 million cells suspended in PBS. […] Tumors were measured three times weekly for 5 weeks to determine the tumor volume by the following formula: l (mm) × L (mm) × L (mm). […]
The mice were exposed to DMSO or DAP for about five weeks and tumor size was measured three times weekly and plotted on the graph. […]
(B) Western blot analysis of p53 protein in the Calu-6-cell tumors of the seven DMSO-exposed and seven DAP-exposed mice. […] Error bar= S.D., p-values (p) were calculated using Student's t-test. […]

[2] = system: Calu-6 cell tumors in nude mice; assay: In vivo established Calu-6 tumors: tumor size and p53 western blot; parameters: species or system mouse; details: DAP for 1 week after tumor size about 0.4 cm^3

## Nc1nc(N)c2[nH]cnc2n1 [DAP, 2,6-diaminopurine]
FTSJ1
  Binding to FTSJ1 (affinity column, western blot of eluate): binds to FTSJ1
HeLa cells; DAP 0.39, 24 h, average
  Adenylate kinase activity in culture medium: 387040
HeLa cells; DAP 0.39, 24 h, experiment 1
  Adenylate kinase activity in culture medium: 426825
HeLa cells; DAP 0.39, 24 h, experiment 2
  Adenylate kinase activity in culture medium: 354564
HeLa cells; DAP 0.39, 24 h, experiment 3
  Adenylate kinase activity in culture medium: 379730
HeLa cells; DAP 0.78, 24 h, average
  Adenylate kinase activity in culture medium: 423131
HeLa cells; DAP 0.78, 24 h, experiment 1
  Adenylate kinase activity in culture medium: 391755
HeLa cells; DAP 0.78, 24 h, experiment 2
  Adenylate kinase activity in culture medium: 521708
HeLa cells; DAP 0.78, 24 h, experiment 3
  Adenylate kinase activity in culture medium: 355930
HeLa cells; DAP 100, 24 h, average
  Adenylate kinase activity in culture medium: 360341
HeLa cells; DAP 100, 24 h, experiment 1
  Adenylate kinase activity in culture medium: 374460
HeLa cells; DAP 100, 24 h, experiment 2
  Adenylate kinase activity in culture medium: 518986
HeLa cells; DAP 100, 24 h, experiment 3
  Adenylate kinase activity in culture medium: 187576
HeLa cells; DAP 300, 24 h, average
  Adenylate kinase activity in culture medium: 386608
HeLa cells; DAP 300, 24 h, experiment 1
  Adenylate kinase activity in culture medium: 380370
HeLa cells; DAP 300, 24 h, experiment 2
  Adenylate kinase activity in culture medium: 536556
HeLa cells; DAP 300, 24 h, experiment 3
  Adenylate kinase activity in culture medium: 242898
HeLa cells; DAP 600, 24 h, average
  Adenylate kinase activity in culture medium: 369027
HeLa cells; DAP 600, 24 h, experiment 1
  Adenylate kinase activity in culture medium: 393840
HeLa cells; DAP 600, 24 h, experiment 2
  Adenylate kinase activity in culture medium: 349368
HeLa cells; DAP 600, 24 h, experiment 3
  Adenylate kinase activity in culture medium: 363874
HeLa cells; DAP 1200, 24 h, average
  Adenylate kinase activity in culture medium: 443419
HeLa cells; DAP 1200, 24 h, experiment 1
  Adenylate kinase activity in culture medium: 462690
HeLa cells; DAP 1200, 24 h, experiment 2
  Adenylate kinase activity in culture medium: 487071
HeLa cells; DAP 1200, 24 h, experiment 3
  Adenylate kinase activity in culture medium: 380497
HeLa cells; DAP 2400, 24 h, average
  Adenylate kinase activity in culture medium: 405551
HeLa cells; DAP 2400, 24 h, experiment 1
  Adenylate kinase activity in culture medium: 480750
HeLa cells; DAP 2400, 24 h, experiment 2
  Adenylate kinase activity in culture medium: 416958
HeLa cells; DAP 2400, 24 h, experiment 3
  Adenylate kinase activity in culture medium: 318945
[1]
  Tumor growth vs DMSO, in words: no significant difference in tumor growth
[2]
  p53 protein in tumors (western blot): detected in tumors isolated from DAP-fed
